Experimental data from US10435388B2, “Selective inhibitors of clinically important mutants of the EGFR tyrosine kinase” (CS PHARMATECH LIMITED, priority 2016, dated 2019).
pIC50: −log10 of the molar value. Where two headings read alike, the source gives them in different places.

Legend:
PC9 cells (SM) = test: PC-9 growth inhibition assay (cell proliferation), Method B; type: cell-based, human; conditions: cellular proliferation, several runs
H1975 cells (DM) = test: H1975 inhibition assay (cell proliferation), Method B; type: cell-based; conditions: cellular proliferation, several runs
A431 cells (WT) = test: A431 inhibition assay (cell proliferation), Method B; type: cell-based, human; conditions: cellular proliferation, several runs
Experimental: Cell Proliferation Assays—Method B
A431 Inhibition Assay, (Cell Proliferation).
The rest procedure was conducted in the same manner as described above for H1975 cells.

[1] = system: p-EGFR in PC9 cells (Exon 19 deletion EGFR); test: Exon19 deletion EGFR (activating single mutant) PC-9 cellular autophosphorylation assay; type: cell-based, human; conditions: 2 h treatment, ELISA
Experimental: (§1) Cellular EGFR Autophosphorylation Assays.
The human lung cell line PC9 (Exon 19 deletion EGFR) is obtained from the American type Culture Collection. […] Cells are grown in a humidified incubator at 37° C. with 5% CO2, Assays to measure cellular phosphorylation of endogenous p-EGFR in cell Iysates are carried out according to the protocol described in the R&D Systems DuoSet IC Human Phospho-EGF R ELISA (R&D Systems catalogue number #DYCI095). 40 μL of cells are seeded (10000 cells/well) in growth medium in Corning black, clear-bottomed 384-well plates and incubated at 37° C., with 5%0/CO2 overnight. […] Plates are incubated for a further 2 h, then following aspiration of medium, 40 μL×lysis buffer is added to each well. Greiner black high bind 384 well plates are coated with capture antibody and then blocked with 3% BSA. Following removal of block, 15 μL of lysate are transferred to the Greiner black high bind 384 well plates and incubated for 2 hours. Following aspiration and washing of the plates with PBS, 20 μL of detection antibody are added and incubated for 2 hours. […] The data obtained with each compound are exported into a suitable software package (such as Origin) to perform curve fitting analysis.

[2] = system: p-EGFR in A431 cells (wild type EGFR, EGF stimulated); test: Wild type EGFR A431 autophosphorylation inhibition assay (ELISA); type: cell-based, human; conditions: 2 h treatment, EGF stimulation 10 min
Experimental: as §1
Wild Type EGFR A431 Autophosphorylation Inhibition Assay (ELISA).
After 2 hour treatment with test compounds, add 4.5 μL of EGF (1 μg/mL) into each well and stimulate for 10 min. The rest of the procedure was processed in the same manner as described above for H1975 cells.

[3] = system: p-EGFR in H1975 cells (L858R/T790M double mutant EGFR); conditions: for IC50: Homo sapiens, NCI-H1975, 2 h, read-out: H1975 IC50 (nM), cellular EGFR autophosphorylation, 2 h treatment, ELISA
Experimental: H1975 cells were cryopreserved in liquid nitrogen. […] Remove the vial from liquid nitrogen and thaw rapidly by placing at 37° C. in a water bath with gentle agitation for 1-2 minutes and then decontaminated by wiping with 70% ethanol before opening in a Class II biological safety cabinet. Transfer the vial contents drop-wise into 10 mL of cell culture medium in a sterile 15 mL conical tube. Then centrifuged the tube at 200× g for 5 minutes and aspirate the supernatant. Re-suspend the cell pellet with 1 mL of fresh cell culture medium and transfer it in to the T75 flask containing cell culture medium.
To passage H1975 cells, firstly, the adherent cells were rinsed with Trypsin/EDTA. Then add Trypsin/EDTA (3 mL for a T75 flask) into the flask and swirl to ensure the cells coated with trypsin evenly. Then incubate the flasks at 37° C. until the cells detach. Add equal volume of cell culture medium to stop the reaction. Collect the detached cells and centrifuged at 200× g for 5 minutes followed by re-suspended in fresh culture medium. Then, the cells were transferred into a new T75 flask containing cell culture medium. Cells were sub-cultured three times per week at a ratio of 1:4 in culture medium.
Harvest cells from flask into cell culture medium and the cell numbers counted using Automated Cell Counter (Thermo Fisher Scientific, Countess™). Dilute the cells into 250,000 cells/mL with culture medium and add 40 μL of cell suspension into each well of 384-well cell culture plate as designated. The final concentration was 10,000 cells/well. The plates were covered with lid and placed in 37° C. 5% CO2 incubator overnight for cell attachment.
On the second day, test compounds were dissolved in DMSO at 10 mM. […] The same volume of DMSO was adopted as high control.
Place the plate back to 37° C. 5% CO2 incubator for 2 hours. Replace the medium of each well with ice-cold HBSS. Then remove the HBSS, add 30 μL cell lysis buffer into each well and shake the plates for 30 mins on a plate shaker. Centrifuge for 5 min at 1,000 rpm to remove bubbles and transfer 25 uL of the lysate supernatant for p-EGFR assay by using a commercial ELISA kit (R&D, DYC1095B-5).
For estimation of IC50, the absorption readout are transformed to % relative activity by applying the following equation
[formula] The IC50 was then calculated by fitting in XLFit (IDBS, Guildford, Surrey) to a four parameters logistic curve.

EGFR_d746-750 = EGFR_d746-750 (Homo sapiens, UniProt P00533, DEL746-750); test: Enzyme assay, IC50 for single mutant EGFR_d746-750 (Caliper); type: biochemical; conditions: enzyme phosphorylation assay
Experimental: (§2) Using the same technique as described in the previous paragraph, various mutated forms of the epidermal growth factor receptor may be isolated from appropriate cell lines which contain them. For example, the EGFR de1746-750 mutant protein may be extracted from PC-9 cells, and the L858R/T790M double mutant EGFR protein may be isolated from H1975 cells.
Determination of IC50 Values for Single Mutant EGFR_d746-750
Dilute all compounds to 500 μM stock solutions in 100% DMSO and make a serial of 4-fold dilution for 10 doses. “Max” and “Min” control contain 100% DMSO. “Max” stands for […], “Min” stands for low control without compounds. Transfer 10 μl of compounds to 90 μl of 1× kinase base buffer to make intermediate dilution. […] Incubate at RT for 1 hr and 25 μl stop buffer to end up reaction. Collect conversion data from Caliper and conversion data from Caliper program. Fit the data in XLfit to obtain IC50 values.

EGFR_T790M/L858R = EGFR_T790M/L858R (Homo sapiens, UniProt P00533, L858R/T790M); test: Enzyme assay, IC50 for double-mutant EGFR (EGFR_T790M/L858R) (Caliper); type: biochemical; conditions: enzyme phosphorylation assay; read-out: EGFR_L858R/T790 IC50
Experimental: as §2
Determination of IC50 Values for Double-Mutant EGFR (EGFR_T790M/L858R)
Dilute all compounds to 500 μM stock solutions in 100% DMSO and make a serial of 4-fold dilution for 10 does. “Max” and “Min” control contain 100% DMSO. “Max” stands for […], “Min” stands for low control without compounds. Transfer 10 μl of compounds to 90 μl of 1× kinase base buffer to make intermediate dilution. […] Incubate at RT for 1 hr and 25 μl stop buffer to end up reaction. Collect conversion data from Caliper and conversion data from Caliper program. Fit the data in XLfit to obtain IC50 values.

Wt EGFR = biological target: T1, Wt EGFR (Homo sapiens, UniProt P00533); test: Enzyme assay, IC50 for wt EGFR (Caliper); type: biochemical; conditions: enzyme phosphorylation assay; read-out: EGFR_WT IC50
T1 construct: isolated from A431 human epidermoid carcinoma cells which overexpress EGF receptor; endogenous in cells; host or cells: A431 human epidermoid carcinoma cells (receptor purified on wheat germ agglutinin sepharose)
Experimental: Purification of Epidermal Growth Factor Receptor Tyrosine Kinase Human EGF receptor tyrosine kinase was isolated from A431 human epidermoid carcinoma cells which overexpress EGF receptor by the following methods. Cells were grown in roller bottles in 50% Delbuco's Modified Eagle and 50% HAM F-12 nutrient media (Gibco) containing 10% fetal calf serum. Approximately 10^9 cells were lysed in two volumes of buffer containing 20 mM 2-(4N-[2-hydroxyethyl]piperazin-1-yl)ethanesulfonic acid (hepes), pH 7.4, 5 mM ethylene glycol bis(2-aminoethyl ether) N,N,N′,N′-tetraacetic acid, 1% Triton X-1OO, 10% glycerol. 0.1 mM sodium orthovanadate, 5 mM sodium fluoride, 4 mM pyrophosphate, 4 mM benzamide, 1 mM dithiothreitol, 80 μg/mL aprotinin, 40 μg/mL leupeptin and 1 mM phenylmethylsulfonyl fluoride. After centrifugation at 25,000×g for 10 minutes, the supernatant was equilibrated for 2 h at […], with 10 mL of wheat germ agglutinin sepharose that was previously equilibrated with 50 mM Hepes, 10% glycerol, 0.1% Triton X-100 and 150 mM NaCl, pH 7.5, (equilibration buffer). Contaminating proteins were washed from the resin with 1M NaCl in equilibration buffer, and the enzyme was eluted with 0.5M N-acetyl-1-D-glucosamine in equilibration buffer, followed by 1 mM urea. The enzyme was eluted with 0.1 mg/ml EGF.
Determination of IC50 Values for Wt EGFR
Dilute all compounds to 500 μM stock solutions in 100% DMSO and make a serial of 4-fold dilution for 10 does. “Max” and “Min” control contain 100% DMSO. “Max” stands for […], “Min” stands for low control without compounds. Transfer 10 μl of compounds to 90 μl of Ix kinase base buffer to make intermediate dilution. Transfer 5 μl of intermediate dilution compounds to the 384-well assay plate, then 10 μl 2.5× enzyme buffer containing (20 nM EGFR, 5 mM DTT, 1× kinase base buffer) were added to assay plate. […] Incubate at RT for 1 hr and 25 μl stop buffer to end up reaction. Collect conversion data from Caliper and conversion data from Caliper program. Fit the data in XLfit to obtain IC50 values.

[4] = system: PC9 cells (EGFR d746-750 single mutant); test: PC-9 growth inhibition assay (cell proliferation), Method A; type: cell-based, human; conditions: Homo sapiens, PC-9; cellular proliferation, PC9 cells, 72 h, CellTiter-Glo (Table 1); read-out: PC9 IC50 (nM) SM
Experimental: (§3) Cell Proliferation Assays—Method A
(§4) The final concentration was 4,000 cells/well. Add medium only as low control.
(§5) Day-2: Test compounds were dissolved in DMSO at 0.2 mM (200×).
(§6) Day-5: After 72 hours incubation, remove the plates from incubator and equilibrate at room temperature for 15 minutes. Incubate the CellTiter Glo reagents (Promega, G9243) at 37° C. before the experiment. The buffer was equilibrated to room temperature and used to dissolve the substrate. To determine the cell viability, add 30 μL of CellTiter-Glo reagent into each well to be detected. Then shake the plates at room temperature for 10 min and followed by plate read on Envision (PerkinElmer).
(§7) For estimation of IC50, the luminescence readout are transformed to % Inhibition by applying the following equation: The IC50 was then
(§8) [formula] calculated by fitting in XLFit to a four parameters logistic curve.
PC-9 Growth Inhibition Assay (Cell Proliferation)
The inhibition assay for PC-9 cells was processed in the same manner as described for the H1975 cells.

[5] = system: NCI-H1975 cells (EGFR L858R/T790 double mutant); test: H1975 inhibition assay (cell proliferation), Method A; type: cell-based; conditions: Homo sapiens; cellular proliferation, NCI-H1975 cells, 72 h, CellTiter-Glo (Table 1); read-out: NCI-H1975 IC50 (nM) DM
Experimental: as §3
H1975 Inhibition Assay (Cell Proliferation)
as §4, §5, §6, §7, §8

[6] = system: LoVo cells (unmutated EGFR wild type); test: LoVo growth inhibition assay (cell proliferation), Method A; type: cell-based; conditions: Homo sapiens, cellular proliferation, 72 h, CellTiter-Glo (Table 1), read-out: LoVo IC50 (nM) WT
Experimental: as §3
LoVo Growth Inhibition Assay (Cell Proliferation)
The rest of the procedure was carried out in the same manner as described for the H1975 cells.

[7] = Homo sapiens, A-431, cellular EGFR autophosphorylation

Sequence of EGFR_T790M/L858R (P00533 25-1210 T790M/L858R): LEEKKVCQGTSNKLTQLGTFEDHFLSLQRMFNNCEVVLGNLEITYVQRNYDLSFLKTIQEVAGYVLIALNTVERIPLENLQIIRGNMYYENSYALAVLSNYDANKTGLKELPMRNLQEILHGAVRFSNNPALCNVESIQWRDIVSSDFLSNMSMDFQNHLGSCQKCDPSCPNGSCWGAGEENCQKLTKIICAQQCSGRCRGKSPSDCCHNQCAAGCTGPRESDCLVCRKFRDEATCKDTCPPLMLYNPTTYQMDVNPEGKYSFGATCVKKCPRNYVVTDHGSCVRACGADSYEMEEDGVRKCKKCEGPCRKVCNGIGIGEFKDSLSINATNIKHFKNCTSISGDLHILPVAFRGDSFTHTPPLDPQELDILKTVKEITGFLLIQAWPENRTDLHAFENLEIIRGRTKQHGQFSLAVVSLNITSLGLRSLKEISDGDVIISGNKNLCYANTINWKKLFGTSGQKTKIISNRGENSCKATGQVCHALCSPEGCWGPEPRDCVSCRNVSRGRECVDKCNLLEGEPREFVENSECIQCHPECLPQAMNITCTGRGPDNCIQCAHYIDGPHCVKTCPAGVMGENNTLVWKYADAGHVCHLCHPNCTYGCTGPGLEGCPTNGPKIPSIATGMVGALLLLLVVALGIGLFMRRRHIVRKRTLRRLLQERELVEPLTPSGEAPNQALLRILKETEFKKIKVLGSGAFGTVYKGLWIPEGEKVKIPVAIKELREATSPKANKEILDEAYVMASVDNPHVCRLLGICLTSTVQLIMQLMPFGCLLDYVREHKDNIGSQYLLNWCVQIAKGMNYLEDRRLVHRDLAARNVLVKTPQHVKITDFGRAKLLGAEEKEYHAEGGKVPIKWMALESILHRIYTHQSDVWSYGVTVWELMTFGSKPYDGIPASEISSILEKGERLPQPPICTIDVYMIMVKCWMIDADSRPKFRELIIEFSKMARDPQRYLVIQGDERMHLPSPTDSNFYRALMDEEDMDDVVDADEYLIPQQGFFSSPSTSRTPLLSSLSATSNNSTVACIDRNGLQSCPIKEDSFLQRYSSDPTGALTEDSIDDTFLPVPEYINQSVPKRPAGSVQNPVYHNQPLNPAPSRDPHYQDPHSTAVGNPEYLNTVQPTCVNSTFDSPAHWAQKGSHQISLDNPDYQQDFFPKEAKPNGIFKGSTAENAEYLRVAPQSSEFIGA
Sequence of EGFR_d746-750 (P00533 with tags, fused parts or gaps DEL746-750): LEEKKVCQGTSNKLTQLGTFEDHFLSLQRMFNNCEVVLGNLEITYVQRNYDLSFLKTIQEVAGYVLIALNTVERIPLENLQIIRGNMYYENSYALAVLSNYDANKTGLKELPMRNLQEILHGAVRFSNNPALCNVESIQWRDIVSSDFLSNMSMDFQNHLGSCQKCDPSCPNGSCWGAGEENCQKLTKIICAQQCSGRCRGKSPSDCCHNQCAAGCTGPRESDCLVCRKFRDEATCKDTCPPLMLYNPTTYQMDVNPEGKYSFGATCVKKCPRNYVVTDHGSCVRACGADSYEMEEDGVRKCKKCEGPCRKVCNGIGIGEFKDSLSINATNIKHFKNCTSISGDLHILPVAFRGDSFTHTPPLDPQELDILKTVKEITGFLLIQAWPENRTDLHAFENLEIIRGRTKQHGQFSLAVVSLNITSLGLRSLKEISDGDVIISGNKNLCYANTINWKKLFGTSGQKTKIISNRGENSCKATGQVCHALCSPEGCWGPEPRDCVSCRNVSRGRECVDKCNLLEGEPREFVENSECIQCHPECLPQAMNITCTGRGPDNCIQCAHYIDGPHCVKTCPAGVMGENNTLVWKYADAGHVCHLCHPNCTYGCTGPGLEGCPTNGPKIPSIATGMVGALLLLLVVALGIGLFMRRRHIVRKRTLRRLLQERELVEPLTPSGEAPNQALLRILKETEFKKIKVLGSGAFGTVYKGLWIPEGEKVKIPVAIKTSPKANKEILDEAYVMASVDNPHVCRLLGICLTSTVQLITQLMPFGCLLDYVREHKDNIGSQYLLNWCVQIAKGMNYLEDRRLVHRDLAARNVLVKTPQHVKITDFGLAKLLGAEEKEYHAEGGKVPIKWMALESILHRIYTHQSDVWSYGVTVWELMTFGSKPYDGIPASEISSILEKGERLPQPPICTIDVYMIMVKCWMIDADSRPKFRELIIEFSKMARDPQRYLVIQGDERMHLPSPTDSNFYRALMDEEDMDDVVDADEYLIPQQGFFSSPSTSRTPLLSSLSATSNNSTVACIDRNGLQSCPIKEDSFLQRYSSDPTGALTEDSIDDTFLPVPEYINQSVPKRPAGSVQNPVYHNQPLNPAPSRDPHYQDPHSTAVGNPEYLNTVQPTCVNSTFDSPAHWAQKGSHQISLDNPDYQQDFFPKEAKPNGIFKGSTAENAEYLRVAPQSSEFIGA
T1 sequence (P00533 25-1210): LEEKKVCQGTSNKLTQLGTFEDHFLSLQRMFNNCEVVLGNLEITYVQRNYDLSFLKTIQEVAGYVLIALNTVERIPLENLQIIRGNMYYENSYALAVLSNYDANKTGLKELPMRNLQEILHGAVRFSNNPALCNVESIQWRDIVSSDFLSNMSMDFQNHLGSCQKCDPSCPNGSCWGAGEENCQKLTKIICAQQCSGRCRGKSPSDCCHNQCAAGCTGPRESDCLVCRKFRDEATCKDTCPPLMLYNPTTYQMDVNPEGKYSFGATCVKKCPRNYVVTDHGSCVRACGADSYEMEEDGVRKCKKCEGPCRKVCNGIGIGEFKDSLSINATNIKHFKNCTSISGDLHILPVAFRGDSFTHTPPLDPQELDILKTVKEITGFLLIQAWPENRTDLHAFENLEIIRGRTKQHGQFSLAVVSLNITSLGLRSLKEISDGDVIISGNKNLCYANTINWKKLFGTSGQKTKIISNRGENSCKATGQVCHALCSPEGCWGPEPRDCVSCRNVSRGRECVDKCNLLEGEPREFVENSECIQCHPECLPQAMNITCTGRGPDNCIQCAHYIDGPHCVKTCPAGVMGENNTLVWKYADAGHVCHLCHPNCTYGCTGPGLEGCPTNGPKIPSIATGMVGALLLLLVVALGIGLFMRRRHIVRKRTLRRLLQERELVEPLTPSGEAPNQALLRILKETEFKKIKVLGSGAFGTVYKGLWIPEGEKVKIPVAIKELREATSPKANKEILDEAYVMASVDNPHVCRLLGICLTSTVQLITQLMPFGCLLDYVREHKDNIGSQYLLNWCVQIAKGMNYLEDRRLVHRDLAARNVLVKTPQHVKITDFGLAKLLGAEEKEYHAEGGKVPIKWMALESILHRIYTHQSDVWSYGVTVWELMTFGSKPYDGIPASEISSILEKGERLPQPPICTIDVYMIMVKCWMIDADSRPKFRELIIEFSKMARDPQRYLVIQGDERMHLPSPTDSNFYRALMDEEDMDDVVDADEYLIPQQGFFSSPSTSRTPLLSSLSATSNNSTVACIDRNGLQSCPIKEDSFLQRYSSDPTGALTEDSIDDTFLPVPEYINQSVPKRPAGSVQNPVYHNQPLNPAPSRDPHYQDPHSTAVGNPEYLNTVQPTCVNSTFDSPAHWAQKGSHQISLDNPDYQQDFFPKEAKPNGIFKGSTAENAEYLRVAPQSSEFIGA

Structure (SMILES)	pIC50 (EGFR_d746-750)	pIC50 (EGFR_T790M/L858R)	pIC50 (Wt EGFR)	IC50 [4] [nM]	IC50 [5] [nM]	IC50 [6] [nM]	other results
C=CC(=O)N1CC[C@@H](Oc2nc(Nc3ccc(N4CCC(N5CCN(C)CC5)CC4)cc3)c(C(N)=O)nc2CC)C1 [ASP8273]							pIC50 (PC9 cells (SM); Homo sapiens, PC-9, 72 h): 7.80; pIC50 (H1975 cells (DM); Homo sapiens, NCI-H1975, 72 h): 7.92; pIC50 (A431 cells (WT); Homo sapiens, A-431, 72 h): 6.17; pIC50 ([1]; Homo sapiens, PC-9, 2 h): 7.43; pIC50 [2, 7]: 6.66; IC50 [3]: 7.8 nM
Cc1cc(C(=O)Nc2nc3cccc(Cl)c3n2[C@@H]2CCCCN(C(=O)/C=C/CN(C)C)C2)ccn1 [EGF 816]							pIC50 (PC9 cells (SM); 72 h): 7.17; pIC50 (H1975 cells (DM); 72 h): 7.11; pIC50 (A431 cells (WT); 72 h): 5.54; pIC50 [1]: 7.60; pIC50 ([2]; cellular EGFR autophosphorylation): 6.56; pIC50 ([3]; read-out: H1975 IC50, cellular EGFR autophosphorylation, 2 h treatment, ELISA): 7.36
C=CC(=O)Nc1cc(Nc2nccc(-c3c[nH]c4c(C)cccc34)n2)c(OC)cc1N(C)CCN(C)C [Example 11, N-(2-(N-(2-(N,N-Dimethylamino)ethyl)-N-methylamino)-4-methoxy-5-(4-(7-methylindol-3-yl)pyrimidin-2-ylamino)phenyl) propenamide]	9.00	8.89	8.82	2.9	2.3	4730	
C=CC(=O)Nc1cc(Nc2nccc(-c3c[nH]c4c(C#N)cccc34)n2)c(OC)cc1N(C)CCN(C)C [Example 12, N-(2-(N-(2-(N,N-Dimethylamino)ethyl)-N-methylamino)-4-methoxy-5-(4-(7-cyanoindol-3-yl)pyrimidin-2-ylamino)phenyl) propenamide]	8.96	8.92	8.82	5.2	3.5	2560	
C=CC(=O)Nc1cc(Nc2nccc(-c3c(C)[nH]c4ccccc34)n2)c(OC)cc1N(C)CCN(C)C [Example 14, N-(2-(N-(2-(N,N-Dimethylamino)ethyl)-N-methylamino)-4-methoxy-5-(4-(2-methylindol-3-yl)pyrimidin-2-ylamino)phenyl) propenamide]	9.00	8.74	8.30	6.1	3.7	2980	
C=CC(=O)Nc1cc(Nc2nccc(-n3nc(NC(C)C)c4ccccc43)n2)c(OC)cc1N(C)CCN(C)C [Example 43]							pIC50 (PC9 cells (SM); Homo sapiens, PC-9, 72 h): 8.48; pIC50 (H1975 cells (DM); Homo sapiens, NCI-H1975, 72 h): 8.40; pIC50 (A431 cells (WT); Homo sapiens, A-431, 72 h): 6.66; pIC50 ([1]; Homo sapiens, PC-9, 2 h): 7.99; pIC50 [2, 7]: 7.13; IC50 [3]: 10.2 nM

More lines, main results first:

pIC50 (EGFR_d746-750)	pIC50 (EGFR_T790M/L858R)	pIC50 (Wt EGFR)	IC50 [4] [nM]	IC50 [5] [nM]	IC50 [6] [nM]	Structure (SMILES)	other results
9.04	8.92	8.89	2.2	1.5	12000	C=CC(=O)Nc1cc(Nc2nccc(-n3c(=O)[nH]c4ccccc43)n2)c(OC)cc1N(C)CCN(C)C [Example 10, N-(2-(N-(2-(N,N-Dimethylamino)ethyl)-N-methylamino)-4-methoxy-5-(4-(2-oxo-2,3-dihydrobenzimidazol-1-yl)pyrimidin-2-ylamino)phenyl) propenamide]	
8.77	8.82	8.17	9.9	5.6	5810	C=CC(=O)Nc1cc(Nc2nccc(N3CCc4ccccc43)n2)c(OC)cc1N(C)CCN(C)C [Example 13, N-(2-(N-(2-(N,N-Dimethylamino)ethyl)-N-methylamino)-4-methoxy-5-(4-(2,3-dihydroindol-1-yl)pyrimidin-2-ylamino)phenyl) propenamide]	
8.96	8.82	8.72	3.3	2.9	13500	C=CC(=O)Nc1cc(Nc2nccc(-c3n[nH]c4ccccc34)n2)c(OC)cc1N(C)CCN(C)C [Example 15, N-(2-(N-(2-(N,N-Dimethylamino)ethyl)-N-methylamino)-4-methoxy-5-(4-(indazol-3-yl)pyrimidin-2-ylamino)phenyl) propenamide]	
